System: REPTOR
Assay: REPTOR localization in adult enterocytes after rapamycin treatment, detected with nanobody-GFP
Format: in vivo, Drosophila
Conditions: rapamycin 50 µM in food, 15 hr; adult enterocytes co-expressing VHH05-REPTOR-127D01 and Nb127D01-GFP or NbVHH05-GFP; confocal imaging
Text: To address whether NanoTagged POIs can be detected in vivo, we generated UAS-VHH05-REPTOR-127D01 flies. A previous study has shown that in S2 cells, the transcription factor REPTOR is enriched in the cytoplasm under normal conditions but translocates into the nucleus upon rapamycin treatment ([Tiebe et al., 2015]). To test whether the changes in REPTOR localization can be detected using the nanobodies, we co-expressed NanoTagged REPTOR along with Nb127D01-GFP or NbVHH05-GFP specifically in adult enterocytes (ECs). In the absence of a NanoTagged POI, Nb127D01-GFP and NbVHH05-GFP were detected in both the cytoplasm and nuclei (Figure 5G1). In contrast, when co-expressed with NanoTagged REPTOR, the nanobody-GFP signals were enriched in the cytoplasm of ECs under normal food conditions (Figure 5H and J). […] Similar changes were absent from ECs that express Nb127D01-GFP or NbVHH05-GFP alone (Figure 5G1).
For rapamycin treatment, rapamycin (LC Laboratories, R-5000) was dissolved in DMSO and mixed into the media when preparing food vials. The rapamycin dose was 50 µM. […]

With CO[C@H]1C[C@@H]2CC[C@@H](C)[C@@](O)(O2)C(=O)C(=O)N2CCCC[C@H]2C(=O)O[C@H]([C@H](C)C[C@@H]2CC[C@@H](O)[C@H](OC)C2)CC(=O)[C@H](C)/C=C(\C)[C@@H](O)[C@@H](OC)C(=O)[C@H](C)C[C@H](C)/C=C/C=C/C=C/1C [rapamycin, Rapamycin] the REPTOR subcellular localization was “leads to translocation of REPTOR into the nucleus”.
